System: Male NMRI (SPF) mice
Assay: iron utilization in mouse model (low-iron diet)
Format: in vivo
Settings: iron-deficient male NMRI mice; stomach tube, 2 mg iron/kg body weight/day, days 1-5 and 8-12; utilization on day 15 calculated from hemoglobin and body weight increase
Protocol: The excellent Fe utilizations that can be accomplished through the Fe complexes according to the invention were measured by means of the following mouse model. Male NMRI (SPF) mice (approximately 3 weeks old) were fed a low-iron diet (approx. 5 ppm iron) for approximately 3 weeks. The iron complexes were then administered to them by means of a stomach tube (2 mg iron/kg body weight/day) for 2 times 5 days, with an interruption of 2 days (days 1-5 and 8-12). Utilization on day 15 was calculated from the hemoglobin increase and the body weight increase in accordance with the formula […] Control group, utilized from food, (mg Fe)

Row | Substance | Utilization n 15 d (abs. %)
1 | Tris-(4-ethylpyrimidine-2-ol-1-oxide)-iron(III) complex [Example 8] | 82
2 | Tris-(4-propane-2-yl)pyrimidine-2-ol-1-oxide)-iron(III) complex [Example 12] | 55
3 | Tris-(5-chloro-4,6-dimethylpyrimidine-2-ol-1-oxide)-iron(III) complex [Example 7] | 64
4 | Tris-(4,6-diethylpyrimidine-2-ol-1-oxide)-iron(III) complex [Example 4] | 76
5 | Tris-(4-methylpyrimidine-2-ol-oxide)-iron(III) complex [Example 2] | 80
6 | Tris-(5,6-dimethylpyrimidine-2-ol 1-oxide)-iron(III) complex [Example 16] | 57
7 | Tris-(pyrimidine-2-ol-1-oxide)-iron(III) complex [Example 1] | 89
8 | Tris-(4,6-dimethylpyrimidine-2-ol-1-oxide)-iron(III) complex [Example 3] | 74
9 | Tris-(4-methyl-6,7-dihydro-5H-cyclopenta[d]pyrimidin-2-ol-1-oxide)-iron(III) complex [Example 10] | 70
10 | Tris-(4-methyl-5,6,7,8-tetrahydrochinazoline-2-ol-3-oxide)-iron(III) complex [Example 11] | 74
11 | Tris-(4,5,6-trimethylpyrimidine-2-ol-1-oxide)-iron(III) complex [Example 6] | 70
12 | Tris-(6-ethyl-4-methylpyrimidin-2-ol-1-oxide)-iron(III) complex [Example 9] | 69

Source: patent US9422247B2, “Fe(III) complex compounds for the treatment and prophylaxis of iron deficiency symptoms and iron deficiency anemias” (Vifor (International) AG, priority 2011, dated 2016)
